Where “and” joins values, the source holds several entries; their conditions need not be identical. Equal entries are not always repeated.
How the values were obtained:
Type in all cases: in vivo, human
[1] = system: patients with mild cognitive impairment (MCI) due to Alzheimer's disease (AD) or with mild AD; test: Wechsler Memory Scale (WMS) immediate and delayed recall, 12-week study (Example 1); settings: for patients with improvement from baseline, WMS delayed recall composite score / patients with improvement from baseline, WMS immediate recall composite score: day 84
Description: In this study, episodic memory was evaluated using the Dutch version of the WMS scale utilizing both verbal and visual information: Logical Memory (LM I & II) test, in which subject is read a story; Verbal-Paired Associates (VPA I & II), in which subject is given pairs of words and asked remember which words go together; and Visual Reproduction (VR I & II)), in which subject is given drawings of specific shapes. Subjects were then asked to recall the information within each test both in an immediate (WMS-Immediate Recall composite) and delayed (WMS-Delayed Recall composite) basis. The total score of the WMS-Immediate Recall component could range from 0 to 136 (0-53 for LMI; 0-40 for VPA I, and 0-43 VR I) and for the WMS-Delayed Recall from 0 to 92 (0-39 for LM II; 0-10 for VPA II, and 0-43 VR II).
Further analysis included Wechsler Memory Scale (WMS) Analyses. The WMS includes three subcategories: immediate recall, delayed recall, and symbol span, each with distinct assessments. Results can be analyzed as two distinct composites scores or as an overall composite score. This evaluation included the overall (score range: 0 to 401), immediate recall (score range: 0 to 136), and delayed recall (score range: 0 to 92) composite scores; the latter two are considered measures of episodic memory. In addition, the Symbol Span sub-component of WMS was analyzed separately (score range: 0 to 50). In all cases, higher scores reflect better cognitive performance.

amyloid plaque load = test: Quantitative dynamic [11C]PiB PET amyloid scanning (RPM2-BPND), 12-week study; settings: for Number of Responders/Total Number in Population, PET metric Cingulate Posterior / Number of Responders/Total Number in Population, PET metric Frontal / Number of Responders/Total Number in Population, PET metric Global / Number of Responders/Total Number in Population, PET metric Med Temp Lobe / Number of Responders/Total Number in Population, PET metric Parietal / Number of Responders/Total Number in Population, PET metric Temporal: responder = reduction of ≥7% in RPM2-BPND
Description: Dosing started on Day 1 following completion of all baseline procedures. During the treatment period, subjects returned to the clinic on Days 14, 28, 56, and 84. […] Dynamic PET scanning with fill quantitative analysis was performed at baseline and at the end of treatment.
Target engagement was assessed through the use of an AD-related biomarker. The primary endpoint was based on assessment of amyloid plaque burden using quantitative dynamic PET amyloid scanning (Tolboom, N. et al. “Test-retest variability of quantitative [^11C]PIB studies in Alzheimer's disease.” Eur. J. Nucl. Med. Mol. Imaging 36(10): 1629-1638 (2009)). The method of van Berckel et al (van Berckel B N, R. Ossenkoppele, et al. “Longitudinal amyloid imaging using ^11CPiB: Methodologic considerations.” J. Nucl. Med. 5=1; 1570-1576 (2013)) was followed, in which dynamic emission scanning consists of 23 frames with progressive increases in frame duration (1·15, 3·5, 3·10, 2·30, 3·60, 2·150, 2·300, and 7·600 s) for a total scan duration of 90 min; and subsequently full quantitative data analysis of the images was performed by reference parametric mapping (RPM2) using cerebellum as reference tissue. This methodology allowed for a more reliable (i.e. less variable) assessment of brain amyloid plaque load than standard amyloid PET imaging. In addition this method of measuring amyloid burden has high scan-to-scan stability (˜2-3% test-test variability) within subjects. No placebo group was enrolled. Instead, reductions in brain amyloid plaque load of greater than 7%, which is definitively outside the range of test-test variability, were considered to be a drug effect in this study.

interleukin-10 (IL-10) = test: CSF cytokine measurement (Mesoscale Discovery), IL-10, 6-week study; settings: day 41; after VX-745 reached Cmax in the plasma
Description: Cytokine measurements of CSF samples were done to assess the balance of pro-inflammatory versus anti-inflammatory cytokines. The t-helper type 1/t-helper type 2 (TH1/TH2) multiplex cytokine (IFN-γ, IL-1β, IL-2, IL-4, IL-5, IL-8, IL-10, IL-12p70, IL-13, TNFα ) panel by Mescoscale Discovery were utilized to inform on effects on the relative balance of pro-inflammatory cytokines (e.g. IL-1β, TNFα) versus anti-inflammatory cytokines (e.g., IL-10).
Target engagement was assessed through the evaluation of the effect of drug treatment on CSF biomarkers. CSF was collected at 6 time-points over 24 hours at baseline (the 24 hours prior to first dose) and again at 6 time-points over 24 hours near the end of treatment on Day 40. The samples were evaluated by the Mesoscale Discovery ELISA platform for multiple cytokines ((IFN-γ, IL-1β, IL-2, IL-4, IL-5, IL-8, IL-12 protein 70, IL-13, TNFα, and CSF) and for amyloid-beta peptides (Aβ 38/40/42).

[2] = system: neurofilament light chain (NFL); test: CSF neurofilament light chain (NFL), 6-week study; settings: baseline to day 40
Description: Phospho-tau and NFL proteins from CSF sampling were evaluated as markers of the effects of inflammation on neurodegeneration and axonopathy, respectively.

butylcholinesterase = test: CSF butylcholinesterase, 6-week study; settings: baseline to day 40
synaptic function = test: Quantitative EEG, 6-week study
Description: Quantitative EEG was conducted as a measure of the effects of inflammatory cytokines on synaptic function and the effects of modulation of p38 MAPK on synaptic plasticity. Brain fluorodeoxyglucose (FDG) PET scan was conducted at the Screening Visit and Day 40 to measure brain metabolism. In addition, CSF drug levels of VX-745 were obtained to confirm delivery of drug to the brain.

[3] = Example 1 study (N = 15), Wechsler Memory Scale

With O=c1ncn2nc(Sc3ccc(F)cc3F)ccc2c1-c1c(Cl)cccc1Cl [VX-745] the “patients with improvement from baseline, WMS delayed recall composite score” value ([1]; 40 mg group) was 8 of 8, the “patients with improvement from baseline, WMS immediate recall composite score” value ([1]; 40 mg group) was 7 of 8 and the “patients with improvement from baseline, WMS delayed recall composite score” value ([1]; 125 mg group) was 6 of 7. For the same compound, the “patients with improvement from baseline, WMS immediate recall composite score” value ([1]; 125 mg group) was 6 of 7, the “change in all subcomponents of WMS episodic memory composites” value ([1]; Day 84) was “statistically significant (P<0.05) increases” and the “Mean WMS delayed recall composite score” value ([1]; Day 84, combined doses, baseline 13.2 (±2.3), p<0.001) was 22.1 (±4.1). For the same compound, the “Mean WMS immediate recall composite score” value ([1]; Day 84, n=15 combined doses, baseline 48.4 (±3.8), p=0.005) was 58.4 (±4.3), the “Calculated within-subject treatment effect size (Cohen's d), Delayed Recall” value [1, 3] was “.69” and the “Calculated within-subject treatment effect size (Cohen's d), Immediate Recall” value [1, 3] was “.59”. The “WMS immediate and delayed recall, cognitive analysis” value ([1]; nearly all patients, regardless of effect on amyloid plaque) was “dose dependent improvement”, the “subjects between 3 and 7% (% change RPM2_BPND)” value (amyloid plaque load; 40 mg) was 2 and the “subjects who reached the 7% responder criterion (% change RPM2_BPND)” value (amyloid plaque load; 40 mg) was 3. For the same compound, the “Number of Responders/Total Number in Population, PET metric Cingulate Posterior” value (amyloid plaque load; 40 mg twice daily 12 weeks) was 2/8, the “Number of Responders/Total Number in Population, PET metric Frontal” value (amyloid plaque load; 40 mg twice daily 12 weeks) was 3/8 and the “Number of Responders/Total Number in Population, PET metric Global” value (amyloid plaque load; 40 mg twice daily 12 weeks) was 3/8. The “Number of Responders/Total Number in Population, PET metric Med Temp Lobe” value (amyloid plaque load; 40 mg twice daily 12 weeks) was 4/8, the “Number of Responders/Total Number in Population, PET metric Parietal” value (amyloid plaque load; 40 mg twice daily 12 weeks) was 3/8 and the “Number of Responders/Total Number in Population, PET metric Temporal” value (amyloid plaque load; 40 mg twice daily 12 weeks) was 2/8. The “Number of Responders/Total Number in Population, PET metric Cingulate Posterior” value (amyloid plaque load; 125 mg twice daily 12 weeks) was 0/7, the “Number of Responders/Total Number in Population, PET metric Frontal” value (amyloid plaque load; 125 mg twice daily 12 weeks) was 1/7 and the “Number of Responders/Total Number in Population, PET metric Global” value (amyloid plaque load; 125 mg twice daily 12 weeks) was 1/7. For the same compound, the “Number of Responders/Total Number in Population, PET metric Med Temp Lobe” value (amyloid plaque load; 125 mg twice daily 12 weeks) was 2/7, the “Number of Responders/Total Number in Population, PET metric Parietal” value (amyloid plaque load; 125 mg twice daily 12 weeks) was 0/7 and the “Number of Responders/Total Number in Population, PET metric Temporal” value (amyloid plaque load; 125 mg twice daily 12 weeks) was 1/7. For the same compound, the “Percentage reduction in global cortical RPM2-BPND, individual responders” value (amyloid plaque load; 3 responders in the 40 mg dose group, 12 weeks) was −11.6% and −11.9% and −40.5%, the “Number of Responders/Total Number in Population, PET metric Cingulate Posterior” value (amyloid plaque load; All, 12 weeks) was 2/15 and the “Number of Responders/Total Number in Population, PET metric Frontal” value (amyloid plaque load; All, 12 weeks) was 4/15. The “Number of Responders/Total Number in Population, PET metric Global” value (amyloid plaque load; All, 12 weeks) was 4/15, the “Number of Responders/Total Number in Population, PET metric Med Temp Lobe” value (amyloid plaque load; All, 12 weeks) was 6/15 and the “Number of Responders/Total Number in Population, PET metric Parietal” value (amyloid plaque load; All, 12 weeks) was 3/15. The “Number of Responders/Total Number in Population, PET metric Temporal” value (amyloid plaque load; All, 12 weeks) was 3/15, the “Percentage reduction in global cortical RPM2-BPND, individual responder” value (amyloid plaque load; one responder in the 125 mg dose group, 12 weeks) was −7.7% and the “CSF IL-10 change from baseline” value (interleukin-10 (IL-10)) was “decreased rapidly”. For the same compound, the “CSF levels of neurofilament light chain (NFL)” value [2] was “no change”, the “CSF levels of butylcholinesterase” value (butylcholinesterase) was “no change” and the EEG (synaptic function) was “potential positive pharmacodynamics effect”.

Source: patent US10420770B2, “Compositions and methods for treating dementia” (EIP Pharma, LLC, priority 2016, dated 2019)
